Source: patent publication US20100266541A1, “METHODS AND AGENTS FOR […] IMMUNE RESPONSE” (priority 2006, published 2010)
Square brackets hold non-standard residues; d marks the D form. Peptide text beside a SMILES is read from it. * marks the point of attachment. Sta = CC(C)C[C@H](N)[C@@H](O)CC(=O)O; Isovaleryl = CC(C)CC(=O)*

What was measured:
LC3-II = LC3-II accumulation by anti-LC3 Western blotting; format: cell-based, human; settings: for LC3-II accumulation (Western blot, words): 10 hours; for effect on LC3-II levels and hence macroautophagy: 293T, HaCat and MDAMC, 24 h, 1000 U/ml; for LC3-II accumulation, density quantification of Western blots: 10 hours of CQ-treatment
Procedure: Cells were lysed in ice cold lysis buffer (50 mM Tris-HCl pH 8.0, 140 mM NaCl, 1 mM DTT, 1.5 mM MgCl2, 0.5% NP-40 with Complete protease inhibitor cocktail, Roche, Indianapolis, Ind.) for 5 mim on ice (about 10^6 cells/100 μl). Whole cells and cell debris were pelleted by low speed centrifugation (400 g, 3 mil) and cleared supernatants were transferred to a new tube. Protein concentration was determined by BCA protein assay (Pierce, Rockford, Ill.). […] Primary antibodies were visualized with HRP-conjugated goat anti-rabbit IgG (Biorad, Hercules; CA) and the ECLplus detection system (Amersham Biosciences, UK).
This also allowed for extension of the analysis from epithelial cell lines to MHC class II-positive cell types that are more difficult to transfect, such as B cell lines and primary monocytes/dendritic cells. The fact that autophagosome-associated LC3 (called LC3-II) and free cytosolic LC3 (called LC3-I) can be distinguished by their apparent molecular weights in SDS-PAGE gel electrophoresis (16 and 18 lcD, respectively) was used, since it can be quantified separately in anti-LC3 Western blots.

MDAMC cells = assay: Colocalization of GFP-LC3 with compartment markers by confocal microscopy in MDAMC cells; format: cell-based, human
atg12 = assay: Knockdown of atg12 by siRNA in MDAMC cells; format: cell-based, human
Description: The following 21-nt siRNA oligos were used:
Atg12 antisense: 5′-[…]dT (SEQ ID NO:6; nt. 687-705 of NM_004707). As a control, lamin A/Cspecific siRNA from Dharmacon (Lamin sense: 5′-CUGGACUUCCAGAAGAACAdTdT (SEQ ID NO:7); Lamin antisense: 5′-UGUUCUUCUGGAAGUCCAGdTdT (SEQ ID NO:8) or firefly luciferase-specific siRNA (GL2 sense: 50-CGUACGCGGAAUACUUCGAdTdT; SEQ ID NO:9; GL2 antisense: 5′-UCGAAGUAUUCCGCGUACGdTdT; SEQ ID NO:10) was used. siRNA duplexes were delivered by transfection with lipofectamine 2000 (Invitrogen) at 30 pmol siRNA+[…] lipofectamine/well in a 24-well format, and effect of knockdown was analyzed after 2-3 days.

immature DCs = settings: 10 hr of CQ treatment
[1] = system: MDAMC cells stably transfected with GFP-LC3; settings: CQ-treated versus untreated cells
Procedure: MDAMC cells stably transfected with GFP-LC3 were fixed for 1 h at RT with 4% paraformaldehyde (PFA, Electron Microscopy Sciences) in 0.25 M Hepes, pH 7.4, followed by overnight fixation at 4° C. in 8% PFA/Hepes. Cells were washed 1× in PBS, quenched with 0.1 M NH4Cl in PBS for 10 min, scraped into 1% gelatin in PBS and then embedded in 5% gelatin in PBS. Small pieces of the gelatin pellets were infiltrated overnight at 4° C. with 2.3 M sucrose in PBS, mounted onto cryospecimen pins and frozen in liquid nitrogen. […] After quenching with 0.1 M NH4Cl in PBS for 10 min, the grids were incubated for 20 min in a solution of 1% fish skin gelatin (FSG, Sigma-Aldrich) in PBS. They were then labeled with rabbit anti-HLA-DR antiserum C6861 (a gift from Peter Cresswell, Yale University, New Haven, Conn.) in PBS-FSH for 30 min at RT, washed 4× in PBS and then incubated with 10 or 15 nm protein A-gold (purchased from the Department of Cell Biology, University of Utrecht, Netherlands). After 4 more washes in PBS, grids were fixed in 1% glutaraldehyde in PBS for 5 min at RT, washed 5× in PBS and again quenched with 0.1 M NH4Cl in PBS for 10 min. The same labeling procedure was repeated with a rabbit anti-GFP antibody (Invitrogen-Molecular Probes, Carlsbad, Calif.) and after final fixation in 1% glutaraldehyde, grids were washed 8× in HPLC-grade water.

[2] = system: GFP-LC3 labeled autophagosomes; format: cell-based, human; parameters: accumulation of GFP-LC3-labeled autophagosomes: dose or concentration left out as unconfirmed
[3] = MDAMC cells, CQ 50 μM, E64 28 μM, Leupeptin 40 μM and Pepstatin A 15 μM together

CC(=O)N[C@@H](CC(C)C)C(=O)N[C@@H](CC(C)C)C(=O)N[C@H](C=O)CCCNC(=N)N [Leupeptin]
LC3-II accumulation (Western blot, words) (LC3-II; [3]): strong accumulation of LC3-II

CC(C)CC(=O)N[C@H](C(=O)N[C@H](C(=O)N[C@@H](CC(C)C)[C@@H](O)CC(=O)N[C@@H](C)C(=O)N[C@@H](CC(C)C)[C@@H](O)CC(=O)O)C(C)C)C(C)C [Pepstatin A] (Isovaleryl-VV[Sta]A[Sta]-OH)
LC3-II accumulation (Western blot, words) (LC3-II; [3]): strong accumulation of LC3-II

IFN-α
effect on LC3-II levels and hence macroautophagy (LC3-II): not affected

IFNγ: Recombinant human IFNγ
formation of MHC class II positive compartments (MDAMC cells; human epithelial cell lines, IFNγ treatment): induced the formation of MHC class II positive compartments | effect on LC3-II levels and hence macroautophagy (LC3-II): not affected

ATG12 siRNA: 21-nt siRNA duplex against atg12, SEQ ID NO: 5 and 6 (nt. 687-705 of NM_004707) (chain 1 UCAACUUGCUACUACAUGAUDT; chain 2 UCAUGUAGUAGCAAGUUGAUDT; chemistry not fully specified; listed as Homo sapiens)
accumulation of GFP-LC3+ vesicles upon CQ treatment after knockdown (atg12; MDAMC cells stably expressing GFP-LC3, 2 days after transfection, CQ 6 hr): completely abrogates accumulation of these vesicles | colocalization of MP1-LC3-containing vesicles with MHC class II compartments after knockdown (atg12; MDAMC cells stably expressing MP1-LC3, IFNγ 200 U/ml, 50 μM chloroquine last 6 hours): completely abrogated

CCN(CC)CCCC(C)Nc1ccnc2cc(Cl)ccc12 (stereo not drawn) [chloroquine]
MHC class II-labeled compartments positive for GFP-LC3 (immature DCs): 41% (±7%) | HLA-DM colocalization with GFP-LC3, LSM510 histogram tool (MDAMC cells; IFNγ-treated MDAMC, after chloroquine treatment (38 untreated)): 45% | MHC class II colocalization with GFP-LC3, LSM510 histogram tool (MDAMC cells; IFNγ-treated MDAMC, after chloroquine treatment (40 untreated)): 44% | HLA-DM+ vesicles colocalized with GFP-LC3, LSM 510 profile tool (MDAMC cells; IFNγ-treated MDAMC, after chloroquine treatment (52 untreated)): 71% | MHC class II+ compartments colocalized with GFP-LC3, LSM 510 profile tool (MDAMC cells; IFNγ-treated MDAMC, after chloroquine treatment (58 untreated)): 86% | EEA1 colocalization with GFP-LC3, histogram analysis (MDAMC cells; MDAMC, after chloroquine treatment (7% untreated)): 21% | EEA1 colocalization with GFP-LC3, profile analysis (MDAMC cells; MDAMC, after chloroquine treatment (9% untreated)): 26% | LC3-II accumulation, density quantification of Western blots (LC3-II; 293 cells): 30 fold | onset of increase of cellular LC3-II levels (LC3-II; HaCat cell line, time course): already increased 1 hour after CQ-treatment | LC3-II accumulation, density quantification of Western blots (LC3-II; HaCat cells): 5 fold | LC3-II accumulation, density quantification of Western blots (LC3-II; MDAMC cells): 5 fold | LC3-II accumulation (Western blot, words) (LC3-II; [3]): strong accumulation of LC3-II | LC3-II accumulation (Western blot, words) (LC3-II; epithelial and B cell lines, CD14+ monocytes, dendritic cells): strongly accumulated | frequency of GFP-LC3/MHC class II double-labeled multivesicular compartments [1]: found much more frequently | accumulation of GFP-LC3-labeled autophagosomes ([2]; B-LCL, immature and mature DCs, chloroquine for 10 hr): strongly accumulated | accumulation of GFP-LC3 in cytosolic vesicles ([2]; HaCat, HeLa, MDAMC, 293 cell lines, 10 hours of CQ-treatment): strongly accumulated in cytosolic vesicles

CC(C)C[C@H](NC(=O)[C@H]1O[C@@H]1C(=O)O)C(=O)NCCCCN=C(N)N [E64]
LC3-II accumulation (Western blot, words) (LC3-II; [3]): strong accumulation of LC3-II
